Where two headings read alike, the source gives them in different places.
Experiments:
[1] = test system: HIV-1 infection of TZM-bl cells; test: HIV-1 infectivity enhancement assay, β-galactosidase luminescence; assay type: cell-based
[2] = Turbidity, derived count rate of scattered light; assay type: physicochemical; settings: for Log Count Rate: log of derived count rate; for Count Rate: turbidity
Procedure, shortened: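 Samples: 1 mg/mL in PBS pH 7.4 (from DMSO), 1 d at RT, then diluted in 1 mM KCl immediately before measurement. Triplicates, two independent runs averaged.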

[3] = Zeta-potential measurement; assay type: physicochemical; settings: for Zeta-pot. / mV: zeta potential of peptide, Fig S15 source data
Procedure, shortened: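 Peptides diluted from DMSO stock into PBS pH 7.4 to 1 mg/mL and aged 1 d at RT, then diluted into 1 mM aqueous KCl. Zeta potential derived from electrophoretic mobility via Smoluchowski; triplicates, averaged over two independent experiments.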

[4] = assay type: physicochemical; set-up: key to Fibril / Fibril Formation / TEM 2cat / Fibril: 1 = fibrils present; 0 non-fibrillar structures
[5] = infectivity class (low / medium / high) of each library peptide; main list in c1-c6, same classes repeated in sub-lists of sequences containing the hydrophobicity/charge patterns P+,H0,P+,H0,P0,H0,P0; P+,H0,P0,H0,P0,H0,P0; P+,H0,P0,H0
[6] = infectivity enhancement relative to EF-C (=1); Feb2021 run
[7] = infectivity n-fold relative to virus only; Feb2021 run
[8] = log10 of HIV-1 infection of TZM-bl cells relative to EF-C; Fig S15 source data; asymmetric std dev errors
[9] = log10 of infectivity relative to EF-C; Feb2021 run
[10] = derived count rate from zeta measurement, mean
[11] = Feb2021 run; infectivity n-fold relative to virus alone
[12] = Feb2021 run; log10 of infectivity relative to EF-C
[13] = Feb2021 run; n-fold infectivity relative to EF-C
[14] = derived count rate of scattered light, mean, std deviation in separate column
[15] = Fig S8 panels B, D; infectivity enhancement relative to EF-C
[16] = Fig S8 panels B, D; infectivity n-fold relative to virus alone
[17] = Fig S8 panels A, C, asymmetric log errors
[18] = Fig S8 panels B, D, derived count rate of scattered light
[19] = infectivity class (low / medium / high) of the peptide in the sequence-pattern analysis, Fig. S22-A4; class limits not given

Substance	infectivity [1, 5]	Rel-to EFC (Feb-2021) [1, 6]	n-fold to virus (Feb2021) [1, 7]	Log10 Inf. rel. to EF-C [1, 8]	Log10 of Rel to EFC (Feb2021) [1, 9]	Zeta Count Rate / kcps [2, 10]	Zeta Count Rate Category ([2]; key not given)	Zeta category ( +1 = if > 4 mV;-1 = if < -4 mV; 0 = -4mV to 4 mV) [3]	Zeta Pot. / mV ([3]; mean, Std in separate column)	Zeta-pot. / mV [3]	TEM: 1= fibrils, 0= aggregates (micelle), 0.5 = aggregates and fibrils, -1 = nothing obersved, STD prep [4]	n-fold to virus (Feb2021) [1, 11]	Log10 of Rel to EFC (Feb2021) [1, 12]	Rel-to EFC (Feb-2021) [1, 13]	Zeta Count Rate / kcps [2, 14]	other results
EIEIQINMWQ [VH8]	medium	0.1315	5.526	-0.881	-0.881	1264 kcps	1	-1 (-1 = if < -4 mV)	-19.13 mV	-19.13 mV	0.5	–	–	–	–	–
KFKFQFN [BL7]	low	–	–	-1.744	–	–	–	1 (+1 = if > 4 mV)	12.7 mV	12.7 mV	1	0.757	-1.744	0.01802	50.7 kcps	–
CKIWIQIY	–	–	–	–	–	–	–	–	–	–	–	–	–	–	–	Log10 Infection Rel EF-C ([1]; log10 of infection relative to EF-C, Figure 6C): -0.2415; Inf. rel. EF-C ([1]; n-fold infection vs virus only, relative to that of EF-C, 1.3 µM peptide): 0.57; Count Rate / kcps ([2]; derived count rate of scattered light at 633 nm, 173°, from zeta-potential measurement, 0.1 mg/mL in 1 mM KCl after 1 d at 1 mg/mL in PBS, turbidity / microscopic aggregation, mean of triplicate): 1842.4 kcps; Log10 Count Rate ([2]; log10 of derived count rate of scattered light, Figure 6C): 3.265; Log10 Count Rate ([2]; logarithm of count rate in kcps): 3.265; Zeta-Potential / mV ([3]; mean, Figure 6C): 4.537 mV; Fibril / Fibril Formation ([4]; TEM, 1 mg/mL, uranyl acetate stain, qualitative): 1
KIKIQIN [JGB3]	medium	–	–	-0.5766	–	–	–	0 (0 = -4mV to 4 mV)	3.34 mV	3.34 mV	1	11.14	-0.5766	0.2651	43.43 kcps	Rel-to EFC [1, 15]: 0.2651; n-fold to virus [1, 16]: 11.14; Log Count Rate [2, 17]: 1.638; Log Count Rate ([2]; Fig S8 panels B, D): 1.638; Count Rate [2, 18]: 43.43
KIKQIIN [JGA3]	low	0.0398	1.672	-1.4	-1.4	64.03 kcps	0	-1 (-1 = if < -4 mV)	-11.7 mV	-11.7 mV	0.5	–	–	–	–	Rel-to EFC [1, 15]: 0.0398; n-fold to virus [1, 16]: 1.672; Log Count Rate [2, 17]: 1.806; Log Count Rate ([2]; Fig S8 panels B, D): 1.806; Count Rate [2, 18]: 64.03
KIKIQINMWWQ [VH11]	high	–	–	0.5063	–	–	–	1 (+1 = if > 4 mV)	11.8 mV	11.8 mV	0.5	134.825	0.5063	3.209	3893 kcps	infectivity [1, 19]: high
KVKVQVVV [TG8]	low	0.03506	1.473	-1.455	-1.455	163.1 kcps	1	0 (0 = -4mV to 4 mV)	0.147 mV	0.147 mV	1	–	–	–	–	Absolute Infectivity / RLU /s (Feb2021) ([1]; Feb2021; figures match the 1.3 µM column): 820 RLU /s; n-fold to virus (Feb2021) ([1]; Feb2021; infectivity relative to virus only): 1.473; Log10 of Rel to EFC (Feb2021) ([1]; Feb2021; log10 of infectivity relative to EF-C): -1.455; Rel-to EFC (Feb-2021) ([1]; Feb2021; n-fold infectivity relative to EF-C): 0.03506; infectivity [1, 19]: low; Zeta Count Rate Category ([2]; category 1 / 0, no key given): 1; Zeta Count Rate / kcps ([2]; derived count rate of scattered light): 163.1 kcps; Zeta Pot. / mV [3]: 0.147 mV
